Laboratory results reported in patent US20150141375A1 (priority 2009, published 2015).
Read-outs that look alike come from different tables or passages of the source.

Tests used:
[1] = tested on: HCMV(AD169); assay: In vitro potency against dsDNA viruses: HCMV; type: cell-based
[2] = tested on: Adenovirus; assay: microbe, parasite or virus in culture; type: cell-based; details: for EC50: unidentified adenovirus
[3] = tested on: ADV; assay: Retrospective analysis of EIND patients with AdV disease; type: in vivo, human
Procedure: The records of patients who were granted emergency investigational-new-drug approval for CMX001 for treatment of AdV were analyzed retrospectively. Of the 16 patients with AdV disease treated with CMX001, 13 had data available for ≧4 weeks after starting CMX001. Doses of CMX001 ranged from approximately 1 mg/kg once weekly to 4 mg/kg twice weekly. Adenovirus qPCR was performed at VireCor (9 cases), Focus Diagnostics (2) and Molecular Virology Laboratory, University of Washington (2). Disseminated AdV disease was defined by the isolation of the virus from 2 or more sites, including blood. At the end of CMX001 treatment, virologic response (VR) was defined as either ≧99% drop in plasma VL from baseline or undetectable plasma virus. The Wilcoxon signed rank test was used to evaluate whether VL changed from baseline to weeks 1, 2, 4, 6, and 8. Logistic regression models were employed to evaluate possible associations between covariates and VR.

[4] = tested on: HSV-1; assay: microbe, parasite or virus in culture; type: cell-based
[5] = tested on: CMV
[6] = tested on: HSV-2, strain MS; details: previous work; cited from earlier work
[7] = tested on: vaccinia virus; details: CMX001 200 mg initial dose plus other therapies (MMWR 2009); cited from earlier work
[8] = tested on: adenovirus; assay: Pediatric bone marrow transplant recipient with disseminated adenovirus infection

**Q.** What does the source list for `CCCCCCCCCCCCCCCCOCCCOP(=O)(O)CO[C@H](CO)Cn1ccc(N)nc1=O` [CMX001, Hexadecyloxypropyl-cidofovir]?
**A.** Enhanced Activity ([1]; CMX001 versus cidofovir EC50): 422; EC50 ([1]; Human betaherpesvirus 5, AD169, MRC5, MRC-5): 0.9 nM; fold more activity compared to cidofovir ([2]; AdV 31): 5 fold; EC50 ([2]; AdV 31): 280 nM; EC50 ([2]; majority of adenovirus serotypes): < 50 nM; patients achieving virologic response (VR) ([3]; 8 of 13 patients, VR = ≧99% drop in plasma VL or undetectable): 61.5%; safety ([3]; 13 patients): No serious adverse events, gastro-intestinal, renal or bone marrow toxicity were reported; Median decrease from baseline, adenovirus viral load ([3]; Week 1): 1.43 log10; Median decrease from baseline, adenovirus viral load ([3]; Week 2): 1.71 log10; Median decrease from baseline, adenovirus viral load ([3]; Week 4): 1.89 log10; Median decrease from baseline, adenovirus viral load ([3]; Week 6): 2.44 log10; Median decrease from baseline, adenovirus viral load ([3]; Week 8): 2.98 log10; EC50 ([4]; Human alphaherpesvirus 1, ACV resistant strain B-2006): 10 ± 0.7 nM; EC50 ([4]; Human alphaherpesvirus 1, ACV resistant strain DM2.1): 8 nM; EC50 ([4]; Human alphaherpesvirus 1, ACV resistant strain PAAr5): 10 nM; EC50 ([4]; Human alphaherpesvirus 1, F (wild type), Table 9): 15 ± 6 nM; EC50 ([4]; Human alphaherpesvirus 1, SC16, ACV resistant strain SC16-S1): 10 nM; EC50 ([4]; Human alphaherpesvirus 1, read-out: EC50 range, panel of wild-type and ACV-resistant isolates of HSV-1 and HSV-2): 8 to 30 nM; EC50 ([4]; Human alphaherpesvirus 1, strain E-377): 60 ± 30 nM; EC50 ([4]; Human alphaherpesvirus 1, strain F): 10 ± 5 nM; EC50 ([4]; Human alphaherpesvirus 1, strain HL-3): 10 ± 10 nM; peak plasma concentration of CMX001 ([5]; person with renal failure, following the first dose): 264 ng/mL; Plasma CMV by PCR ([5]; person, Week 5, 120 mg): 3307; Plasma CMV by PCR ([5]; person, Week 10, 120 mg): 1541; CMV DNA ([5]; person, following 2 weeks of skipped doses): 5,037 copies/mL; CMV plasma DNA ([5]; person, following the first dose (180 mg)): undetectable; CMV DNA ([5]; person, following the start of treatment): undetectable; renal, liver, or hematologic function ([5]; person, more than 16 weeks): No drug-related adverse changes in renal, liver, or hematologic function were observed; optimal dose of CMX001 in this model [6]: 5 mg/kg; time until virus cultures at the vaccination site became negative for vaccinia virus [7]: ≤ 5 days; tolerability ([8]; 2-3 mg/kg): well tolerated; peak cidofovir concentrations, fold lower than label for 5 mg/kg Vistide ([8]; female, human, plasma, oral): more than 100 fold; decrease in viral load ([8]; oral CMX001): 8 log
